The values below come from paper PMC5907918 (Biochemistry, 2017).

By Km is commonly meant the substrate concentration at which the rate is half of its maximum. The kcat is the maximal rate divided by the concentration of active sites. For orientation: IC50 means the midpoint of a concentration-inhibition curve. Usually stoichiometry N stands for a count of units in the complex or per binding partner.

Experiment [1] concerns the target T1, human Sts-1HP (Homo sapiens, UniProt Q8TF42). The experiment in a line: Steady state kinetics of phosphatase substrates, human Sts-1HP. In kind it is biochemical. Particulars: substrate as labelled, 298 K.
The target in experiment [2] is T2, human Sts-2HP (Homo sapiens, UniProt P57075).
T2 sequence (P57075 393-657): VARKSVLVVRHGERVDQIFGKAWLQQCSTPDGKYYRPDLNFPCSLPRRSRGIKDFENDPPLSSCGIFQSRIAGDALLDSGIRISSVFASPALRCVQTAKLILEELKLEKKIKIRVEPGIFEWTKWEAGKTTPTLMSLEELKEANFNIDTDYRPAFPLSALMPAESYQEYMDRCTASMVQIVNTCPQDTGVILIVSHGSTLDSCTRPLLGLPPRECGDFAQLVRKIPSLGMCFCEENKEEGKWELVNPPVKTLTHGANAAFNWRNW
The experiment in a line: Steady state kinetics of phosphatase substrates, human Sts-2HP. In kind it is biochemical. Particulars: substrate as labelled, 298 K.

Experiment [3] concerns the target T1, human Sts-1HP. The experiment in a line: Inhibition of Sts-1HP phosphatase activity. Format: biochemical. The conditions noted are these: known phosphatase inhibitors tested.
The subject of experiment [4] is PTP-1B. Particulars: cited from earlier work.
The target in experiment [5] is Full-length Sts-1 (Homo sapiens, UniProt Q8TF42). As to the kind of experiment: Steady state kinetics of phosphatase substrates, full-length Sts-1. In kind it is biochemical. Particulars: substrate as labelled, 298 K.
Sequence of Full-length Sts-1 (Q8TF42 whole entry, the tested form may be a part): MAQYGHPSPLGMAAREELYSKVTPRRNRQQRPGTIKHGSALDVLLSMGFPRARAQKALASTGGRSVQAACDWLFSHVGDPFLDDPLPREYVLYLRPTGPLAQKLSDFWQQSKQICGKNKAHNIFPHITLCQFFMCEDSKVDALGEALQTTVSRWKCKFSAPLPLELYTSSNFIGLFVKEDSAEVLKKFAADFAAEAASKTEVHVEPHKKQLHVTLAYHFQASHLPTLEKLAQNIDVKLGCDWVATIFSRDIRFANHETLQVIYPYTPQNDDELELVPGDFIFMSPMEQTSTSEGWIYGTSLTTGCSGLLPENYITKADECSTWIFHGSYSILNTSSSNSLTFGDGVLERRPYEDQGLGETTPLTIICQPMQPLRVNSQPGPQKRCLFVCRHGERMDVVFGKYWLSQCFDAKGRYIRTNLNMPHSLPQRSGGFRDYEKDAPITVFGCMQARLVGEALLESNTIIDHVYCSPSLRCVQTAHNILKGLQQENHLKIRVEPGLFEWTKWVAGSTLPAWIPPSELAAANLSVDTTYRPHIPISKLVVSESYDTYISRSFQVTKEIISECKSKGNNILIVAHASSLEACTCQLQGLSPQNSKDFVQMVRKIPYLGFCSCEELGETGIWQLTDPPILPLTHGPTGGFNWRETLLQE
The target of experiment [6] is histidine phosphatase domain of human Sts-1 (Sts-1HP) (human) (UniProt Q8TF42). The experiment in a line: crystal structure.

T1 sequence (Q8TF42 380-647): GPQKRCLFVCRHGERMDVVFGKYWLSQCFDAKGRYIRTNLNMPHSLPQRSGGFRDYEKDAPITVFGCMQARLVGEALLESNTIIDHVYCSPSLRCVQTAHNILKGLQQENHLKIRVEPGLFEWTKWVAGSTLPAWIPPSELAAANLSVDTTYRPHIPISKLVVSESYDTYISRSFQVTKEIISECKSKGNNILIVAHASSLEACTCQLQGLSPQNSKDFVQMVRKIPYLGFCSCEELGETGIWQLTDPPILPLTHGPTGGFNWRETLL

Turning to `Cc1cc(=O)oc2c(F)c(OP(=O)(O)O)c(F)cc12` [DifMUP, 6,8-Difluoro-4-Methylumbelliferyl Phosphate], in experiment [1], the Km came out at 2 µM and the kcat stood at 100.68 s⁻¹. Besides, in experiment [2], the Km came to 850 ± 230 µM and the kcat was found to be 4.92 ± 0.76 s⁻¹.

For `CN(N=O)c1ccc(O)c(O)c1` [Methyl-dephostatin, methyl-3,4-dephostatin], the “inhibition of Sts-1HP phosphatase activity (in words)” value (shortened to “inhibition”) in experiment [3] is “not affected”. Moreover, in experiment [4], the IC50 is 3.5 µM.

As to `COc1ccc2c(c1)Oc1cc(OP(=O)(O)O)ccc1C21OC(=O)c2ccccc21` (stereo not drawn) [OMFP, 3-O-Methylfluorescein phosphate], the Michaelis constant (Km) in experiment [1] stood at 190 ± 30 µM; in experiment [2] it was 1070 ± 240 µM. Moreover, the kcat was 786.1 ± 52.4 s⁻¹ in experiment [1] and 5.86 ± 0.78 s⁻¹ in experiment [2].

On to `O=C1C(=NNc2ccc(S(=O)(=O)O)cc2)C(c2ccc([N+](=O)[O-])cc2)=NN1c1ccccc1` [PHPS1, 4-[2-[1,5-dihydro-3-(4-nitrophenyl)-5-oxo-1-phenyl-4H-pyrazol-4-ylidene]hydrazinyl]-benzenesulfonic acid], for which the “inhibition” value in experiment [3] is given as “potent competitive inhibitor”. In experiment [4], the IC50 was 19 µM.

With `Nc1ccc(S(=O)(=O)O)cc1` [Sulfanilic acid], in experiment [3], the “inhibition” value was “modest inhibitor”.

As for `O=[N+]([O-])c1ccc(OP(=O)(O)O)cc1` [pNPP, para-nitrophenyl phosphate], the values for the Km in experiment [1], in experiment [2] and in experiment [5] were 2640 ± 480 µM, 5610 ± 1690 µM and 3310 ± 270 µM, respectively. In addition, the kcat in experiment [1] was 13.62 ± 0.63 s⁻¹; in experiment [2] it was 1.23 ± 0.15 s⁻¹; in experiment [5], 158.6 ± 6.48 s⁻¹.

In the case of `O=P(O)(O)OC(CO)CO` [β-glycerophosphate], in experiment [3], the “inhibition” value is “did not show any observable level of inhibition”.

Take “histidine phosphatase domain of human Sts-1 (Sts-1HP) (from UniProt Q8TF42 369-636) (domain or fragment)”: the stoichiometry N in experiment [6] stood at 2.
